Measured values reported in US8759295B2, “Peptide-peptidase inhibitor conjugates and methods of using same” (Amylin Pharmaceuticals, LLC, priority 2006, dated 2014).
Starred links: 1 amine or outer side, 2 acyl side, 3 side chain; linkers in the order of their positions; H or OH if unused. Non-standard residues stand in square brackets, D forms with d. Residues, ends and D or L forms follow the SMILES beside them. No end group written: not given here. *: point of attachment. Pyrrolidine(2S-CN) = N#C[C@@H]1CCCN1*; εLys = N[C@@H](CCCCN[*:1])C(=O)[*:2]; pGlu = O=C1CC[C@@H](C(=O)O)N1; AEEA = NCCOCCOCC(=O)O; βAla = NCCC(=O)O

Tests used:
NIH/Swiss mice = assay: Oral glucose tolerance test (OGTT), glucose lowering; conditions: 30 nM/kg
[1] = target: T1, human GIP receptor (HEK-GIPR membranes) (Homo sapiens, UniProt P48546); assay: GIP receptor binding displacement assay (RBA); conditions: 10 nM conjugate, 30 pM 125I-GIP; for inhibition at 0.01 µM: read-out: GIP RBA % inhibition at 10 nM
T1 construct: expressed in transfected cells
T1 sequence (P48546 22-466): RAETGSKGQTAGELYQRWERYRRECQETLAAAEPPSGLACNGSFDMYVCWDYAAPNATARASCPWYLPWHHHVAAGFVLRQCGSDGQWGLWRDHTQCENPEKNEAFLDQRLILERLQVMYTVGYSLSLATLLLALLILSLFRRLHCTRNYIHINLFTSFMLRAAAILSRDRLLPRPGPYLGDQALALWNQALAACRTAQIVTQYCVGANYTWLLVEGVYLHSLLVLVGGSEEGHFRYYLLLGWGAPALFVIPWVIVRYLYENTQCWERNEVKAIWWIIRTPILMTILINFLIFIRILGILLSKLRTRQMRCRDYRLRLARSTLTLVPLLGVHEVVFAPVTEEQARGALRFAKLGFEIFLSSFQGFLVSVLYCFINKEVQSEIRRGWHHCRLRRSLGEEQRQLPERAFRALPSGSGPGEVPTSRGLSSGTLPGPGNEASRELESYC
Experimental: Membrane fractions were prepared from confluent cell cultures of HEK-GIPR, snap frozen, and stored at −80° C. until use. […] Reactions were allowed to proceed to equilibrium for 90 minutes at room temperature with constant shaking. The reaction mixtures were then filtered through 96-well glass fiber filter plates separating bound and unbound fractions of radioligand.

Recombinant DPP-IV = Recombinant DPP-IV (Homo sapiens, UniProt P27487); assay: DPP-IV inhibition assay with chromogenic substrate; assay type: biochemical; set-up: purchased Chemicon International, Inc., Temecula, Calif; conditions: mean SEM of at least three determinations
Sequence of Recombinant DPP-IV (P27487 whole entry, species assumed): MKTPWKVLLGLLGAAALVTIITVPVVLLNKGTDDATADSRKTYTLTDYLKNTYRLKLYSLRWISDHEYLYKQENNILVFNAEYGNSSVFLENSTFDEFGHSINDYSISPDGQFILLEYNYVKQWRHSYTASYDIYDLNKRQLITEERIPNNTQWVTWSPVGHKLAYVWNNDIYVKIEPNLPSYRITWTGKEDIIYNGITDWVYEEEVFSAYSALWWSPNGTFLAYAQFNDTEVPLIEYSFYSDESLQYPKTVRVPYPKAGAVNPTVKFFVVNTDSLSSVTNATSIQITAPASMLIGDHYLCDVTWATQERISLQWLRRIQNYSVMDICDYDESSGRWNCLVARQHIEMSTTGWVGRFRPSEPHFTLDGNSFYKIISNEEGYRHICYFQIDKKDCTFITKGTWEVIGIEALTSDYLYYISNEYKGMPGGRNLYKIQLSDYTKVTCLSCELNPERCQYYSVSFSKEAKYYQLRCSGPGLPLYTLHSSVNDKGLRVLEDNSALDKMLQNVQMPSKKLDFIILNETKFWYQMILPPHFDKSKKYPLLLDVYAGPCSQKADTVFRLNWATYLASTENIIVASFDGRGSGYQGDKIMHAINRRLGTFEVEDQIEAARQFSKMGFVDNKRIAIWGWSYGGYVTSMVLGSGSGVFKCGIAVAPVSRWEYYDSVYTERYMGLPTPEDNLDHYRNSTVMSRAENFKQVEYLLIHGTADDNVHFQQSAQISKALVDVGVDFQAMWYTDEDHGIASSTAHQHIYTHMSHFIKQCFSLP
Experimental: The reactions were initiated by adding 1 μl DPP-IV enzyme (0.05 mU) into each well and the absorbance at 410 nm was measured with 20-sec intervals over a 30-min period using a SpectraMax plate reader (Molecular Devices, Corp., Sunnyvale, Calif.). The velocities of each reaction at different inhibitor concentrations were calculated and the reciprocal velocities were plotted against inhibitor concentrations in Dixon graphs. The IC50 values of reaction velocities were calculated through fitting the plots with linear equation.
The IC50 (nM) values in Table 5 are expressed as the mean SEM of at least three independent determinations.

| Compound | OGTT % maximal decrease (NIH/Swiss mice) | inhibition at 0.01 µM [1] [%] | IC50 (Recombinant DPP-IV) [nM] | GIP RBA % inhibition at 10 nM [1] [%] |
| --- | --- | --- | --- | --- |
| CC[C@H](C)[C@H](NC(=O)[C@H](CO)NC(=O)[C@H](Cc1ccc(O)cc1)NC(=O)[C@H](CC(=O)O)NC(=O)[C@H](CO)NC(=O)[C@@H](NC(=O)[C@H](Cc1ccccc1)NC(=O)[C@@H](NC(=O)CNC(=O)[C@H](CCC(=O)O)NC(=O)[C@@H](C)NC(=O)[C@@H](N)Cc1ccc(O)cc1)[C@@H](C)O)[C@@H](C)CC)C(=O)N[C@@H](C)C(=O)N[C@@H](CCSC)C(=O)N[C@@H](CC(=O)O)C(=O)N[C@@H](CCCCN)C(=O)N[C@H](C(=O)N[C@@H](Cc1c[nH]cn1)C(=O)N[C@@H](CCC(N)=O)C(=O)N[C@@H](CCC(N)=O)C(=O)N[C@@H](CC(=O)O)C(=O)N[C@@H](Cc1ccccc1)C(=O)N[C@H](C(=O)N[C@@H](CC(N)=O)C(=O)N[C@@H](Cc1c[nH]c2ccccc12)C(=O)N[C@@H](CC(C)C)C(=O)N[C@@H](CC(C)C)C(=O)N[C@@H](C)C(=O)N[C@@H](CCC(N)=O)C(=O)N[C@@H](CCCCN)C(=O)N1CCC[C@H]1C(=O)N[C@@H](CO)C(=O)N[C@@H](CO)C(=O)NCC(=O)N[C@@H](C)C(=O)N1CCC[C@H]1C(=O)N1CCC[C@H]1C(=O)N1CCC[C@H]1C(=O)N[C@@H](CO)C(=O)NCCOCCOCC(=O)NCCCC[C@H](N)C(=O)N1CCC[C@H]1C#N)C(C)C)[C@@H](C)CC [[D-Ala]GIP(1-30)-exendin-4(31-39)-Ado-Lys-N-ε-(2-(S)-cyano pyrrolidyl)] | −20% | – | – | – |
| CC[C@H](C)[C@H](NC(=O)[C@H](CO)NC(=O)[C@H](Cc1ccc(O)cc1)NC(=O)[C@H](CC(=O)O)NC(=O)[C@H](CO)NC(=O)[C@@H](NC(=O)[C@H](Cc1ccccc1)NC(=O)[C@@H](NC(=O)CNC(=O)[C@H](CCC(=O)O)NC(=O)[C@H](C)NC(=O)[C@@H](N)Cc1ccc(O)cc1)[C@@H](C)O)[C@@H](C)CC)C(=O)N[C@@H](C)C(=O)N[C@@H](CCSC)C(=O)N[C@@H](CC(=O)O)C(=O)N[C@@H](CCCCN)C(=O)N[C@H](C(=O)N[C@@H](Cc1c[nH]cn1)C(=O)N[C@@H](CCC(N)=O)C(=O)N[C@@H](CCC(N)=O)C(=O)N[C@@H](CC(=O)O)C(=O)N[C@@H](Cc1ccccc1)C(=O)N[C@H](C(=O)N[C@@H](CC(N)=O)C(=O)N[C@@H](Cc1c[nH]c2ccccc12)C(=O)N[C@@H](CC(C)C)C(=O)N[C@@H](CC(C)C)C(=O)N[C@@H](C)C(=O)N[C@@H](CCC(N)=O)C(=O)N[C@@H](CCCCN)C(=O)NCCOCCOCC(=O)NCCOCCOCC(=O)NCCCC[C@H](N)C(=O)N1CCC[C@H]1C#N)C(C)C)[C@@H](C)CC [GIP(1-30)-Ado-Ado-Lys-N-ε-(2-(S)-cyano pyrrolidyl)] | −17% | 97 | – | – |
| CC[C@H](C)[C@H](NC(=O)[C@H](CO)NC(=O)[C@H](Cc1ccc(O)cc1)NC(=O)[C@H](CC(=O)O)NC(=O)[C@H](CO)NC(=O)[C@@H](NC(=O)[C@H](Cc1ccccc1)NC(=O)[C@@H](NC(=O)CNC(=O)[C@H](CCC(=O)O)NC(=O)[C@H](C)NC(=O)[C@@H](N)Cc1ccc(O)cc1)[C@@H](C)O)[C@@H](C)CC)C(=O)N[C@@H](C)C(=O)N[C@@H](CC(C)C)C(=O)N[C@@H](CC(=O)O)C(=O)N[C@@H](CCCCN)C(=O)N[C@H](C(=O)N[C@@H](Cc1c[nH]cn1)C(=O)N[C@@H](CCC(N)=O)C(=O)N[C@@H](CCC(N)=O)C(=O)N[C@@H](CC(=O)O)C(=O)N[C@@H](Cc1ccccc1)C(=O)N[C@H](C(=O)N[C@@H](CC(N)=O)C(=O)N[C@@H](Cc1c[nH]c2ccccc12)C(=O)N[C@@H](CC(C)C)C(=O)N[C@@H](CC(C)C)C(=O)N[C@@H](C)C(=O)N[C@@H](CCC(N)=O)C(=O)N[C@@H](CCCCN)C(=O)NCCOCCOCC(=O)NCCCC[C@H](N)C(=O)N1CCC[C@H]1C#N)C(C)C)[C@@H](C)CC [[Leu^14]GIP(1-30)-Ado-Lys-N-ε-(2-(S)-cyano pyrrolidyl)] (H-YAEGTFISDYSIALDKIHQQDFVNWLLAQK[AEEA][εLys]-{Pyrrolidine(2S-CN)}) | – | 100 | 109 ± 1 | – |
| CC[C@H](C)[C@H](NC(=O)[C@H](CO)NC(=O)[C@H](Cc1ccc(O)cc1)NC(=O)[C@H](CC(=O)O)NC(=O)[C@H](CO)NC(=O)[C@@H](NC(=O)[C@H](Cc1ccccc1)NC(=O)[C@@H](NC(=O)CNC(=O)[C@H](CCC(=O)O)NC(=O)[C@H](C)NC(=O)[C@@H](N)Cc1ccc(O)cc1)[C@@H](C)O)[C@@H](C)CC)C(=O)N[C@@H](C)C(=O)N[C@@H](CCSC)C(=O)N[C@@H](CC(=O)O)C(=O)N[C@@H](CCCCN)C(=O)N[C@H](C(=O)N[C@@H](Cc1c[nH]cn1)C(=O)N[C@@H](CCC(N)=O)C(=O)N[C@@H](CCC(N)=O)C(=O)N[C@@H](CC(=O)O)C(=O)N[C@@H](Cc1ccccc1)C(=O)N[C@H](C(=O)N[C@@H](CC(N)=O)C(=O)N[C@@H](Cc1c[nH]c2ccccc12)C(=O)N[C@@H](CC(C)C)C(=O)N[C@@H](CC(C)C)C(=O)N[C@@H](C)C(=O)N[C@@H](CCC(N)=O)C(=O)N[C@@H](CCCCN)C(=O)NCCOCCOCC(=O)NCCCC[C@H](N)C(=O)N1CCC[C@H]1C#N)C(C)C)[C@@H](C)CC [GIP(1-30)-Ado-Lys-N-ε-(2-(S)-cyano pyrrolidyl)] | – | 99 | 98 ± 5 | – |
| Lys^16 (N-ε-(Aun-Aun-(γ-L-Glu-2-(S)-cyano pyrrolidyl))) GIP(1-30)-exendin(31-39) | −3% | – | – | – |
| [D-Ala^2, Leu^14]GIP-(1-30)-β-Ala-β-Ala-Lys(α-NH-Pyroglutamoyl)-Trp-Ala-Pro-COOH (peptide 1 Y[dA]EGTFISDYSIALDKIHQQDFVNWLLAQK[βAla][βAla]; peptide 2 [pGlu]KWAP-OH; not fully specified (some residues); printed as [D-Ala^2, Leu^14]GIP-(1-30)-β-Ala-β-Ala-Lys(α-NH-Pyroglutamoyl)-Trp-Ala-Pro-COOH; numbers in words are those of the source; also: linker at chain B 1 to a chain's C-terminus via βAla-βAla) | −12^ % | – | – | 66 |
| CC[C@H](C)[C@H](NC(=O)[C@H](CO)NC(=O)[C@H](Cc1ccc(O)cc1)NC(=O)[C@H](CC(=O)O)NC(=O)[C@H](CO)NC(=O)[C@@H](NC(=O)[C@H](Cc1ccccc1)NC(=O)[C@@H](NC(=O)CNC(=O)[C@H](CCC(=O)O)NC(=O)[C@H](C)NC(=O)[C@@H](N)Cc1ccc(O)cc1)[C@@H](C)O)[C@@H](C)CC)C(=O)N[C@@H](C)C(=O)N[C@@H](CCSC)C(=O)N[C@@H](CC(=O)O)C(=O)N[C@@H](CCCCN)C(=O)N[C@H](C(=O)N[C@@H](Cc1c[nH]cn1)C(=O)N[C@@H](CCC(N)=O)C(=O)N[C@@H](CCC(N)=O)C(=O)N[C@@H](CC(=O)O)C(=O)N[C@@H](Cc1ccccc1)C(=O)N[C@H](C(=O)N[C@@H](CC(N)=O)C(=O)N[C@@H](Cc1c[nH]c2ccccc12)C(=O)N[C@@H](CC(C)C)C(=O)N[C@@H](CC(C)C)C(=O)N[C@@H](C)C(=O)N[C@@H](CCC(N)=O)C(=O)N[C@@H](CCCCN)C(=O)N1CCC[C@H]1C(=O)N[C@@H](CO)C(=O)N[C@@H](CO)C(=O)NCC(=O)N[C@@H](C)C(=O)N1CCC[C@H]1C(=O)N1CCC[C@H]1C(=O)N1CCC[C@H]1C(=O)N[C@@H](CO)C(=O)NCCOCCOCC(=O)NCCOCCOCC(=O)NCCCC[C@H](N)C(=O)N1CCC[C@H]1C#N)C(C)C)[C@@H](C)CC [GIP(1-30)-exendin-4(31-39)-Ado-Ado-Lys-N-ε-(2-(S)-cyano pyrrolidyl)] | −22% | – | – | – |
| CC[C@H](C)[C@H](NC(=O)[C@H](CO)NC(=O)[C@H](Cc1ccc(O)cc1)NC(=O)[C@H](CC(=O)O)NC(=O)[C@H](CO)NC(=O)[C@@H](NC(=O)[C@H](Cc1ccccc1)NC(=O)[C@@H](NC(=O)CNC(=O)[C@H](CCC(=O)O)NC(=O)[C@H](C)NC(=O)[C@H](Cc1ccc(O)cc1)NC(=O)COCCOCCNC(=O)COCCOCCNC(=O)CC[C@H](N)C(=O)N1CCC[C@H]1C#N)[C@@H](C)O)[C@@H](C)CC)C(=O)N[C@@H](C)C(=O)N[C@@H](CCSC)C(=O)N[C@@H](CC(=O)O)C(=O)N[C@@H](CCCCN)C(=O)N[C@H](C(=O)N[C@@H](Cc1c[nH]cn1)C(=O)N[C@@H](CCC(N)=O)C(=O)N[C@@H](CCC(N)=O)C(=O)N[C@@H](CC(=O)O)C(=O)N[C@@H](Cc1ccccc1)C(=O)N[C@H](C(=O)N[C@@H](CC(N)=O)C(=O)N[C@@H](Cc1c[nH]c2ccccc12)C(=O)N[C@@H](CC(C)C)C(=O)N[C@@H](CC(C)C)C(=O)N[C@@H](C)C(=O)N[C@@H](CCC(N)=O)C(=O)N[C@@H](CCCCN)C(=O)N1CCC[C@H]1C(=O)N[C@@H](CO)C(=O)N[C@@H](CO)C(=O)NCC(=O)N[C@@H](C)C(=O)N1CCC[C@H]1C(=O)N1CCC[C@H]1C(=O)N1CCC[C@H]1C(=O)N[C@@H](CO)C(=O)O)C(C)C)[C@@H](C)CC [N-(γ-L-Glu-2-(S)-cyanopyrrolidyl)-Ado-Ado) GIP(1-30)-exendin-4(31-39)] | – | – | 110 ± 2 | – |
| H-YAEGTFISDYSIALDKIHQQDFVNWLLAQKPSSGAPPPS[AEEA][εLys]-{Pyrrolidine(2S-CN)} [[Leu^14]GIP(1-30)-exendin-4(31-39)-Ado-Lys-N-ε-(2-(S)-cyano pyrrolidyl)] | – | – | 82 ± 2 | – |
